Measurements reported in ChEMBL document CHEMBL5576149, “Discovery of Potent STT3A/B Inhibitors and Assessment of Their Multipathogen Antiviral Potential and Safety” (J Med Chem, 2024).
Values after ≈ are worked out from the molar mass of the structure shown. Active and inactive are the calls of the source. No cut-off for these calls is given here.

What was measured:
Mus musculus [1] = assay: In vivo inhibition of STT3A/STT3B in C57BL/6 mouse assessed as upregulation of DERL3 expression in blood at 0.1 to 10 mg/kg,po measured after 6 hrs by RT-qPCR analysis; assay type: functional, organism-based; conditions: dose 0.1-10 mg/kg
Mus musculus [2] = assay: In vivo inhibition of STT3A/STT3B in C57BL/6 mouse assessed as upregulation of MANF expression in blood at 0.1 to 10 mg/kg,po measured after 6 hrs by RT-qPCR analysis; assay type: functional, organism-based; conditions: dose 0.1-10 mg/kg
Mus musculus [3] = assay: In vivo inhibition of STT3A/STT3B in C57BL/6 mouse assessed as upregulation of MANF expression in lung at 0.1 to 10 mg/kg,po measured after 6 hrs by RT-qPCR analysis; assay type: functional, organism-based; conditions: dose 0.1-10 mg/kg
[4] = Solubility of compound in FaSSIF; assay type: ADME
[5] = Unbound clearance in human liver microsomes at 0.5 uM incubated upto 45 mins; assay type: ADME, Microsome; conditions: 0.75 h
[6] = Volume of distribution at steady state in CD1 mouse at 2 mg/kg,po or 1 mg/kg,iv administrated upto 60 mins by LC-MS/MS analysis; assay type: ADME, organism-based; conditions: in vivo, 1 h
[7] = Inhibition of STT3A/STT3B mediated N-linked glycosylation in human H1-HeLa cells stably transduced with ERluc by measuring effective concentration of inhibition incubated for 18 hrs by One-Glo luciferase reporter assay; assay type: cell-based
[8] = Inhibition of STT3A/STT3B mediated N-linked glycosylation in STT3B knockout human H1-HeLa cells stably transduced with Halo3N-ER sequence by measuring effective concentration incubated for 24 hrs by Western blotting analysis; assay type: cell-based
Mus musculus [9] = assay: In vivo inhibition of STT3A/STT3B in C57BL/6 mouse assessed as upregulation of […] expression in blood at 0.1 to 10 mg/kg,po measured after 6 hrs by RT-qPCR analysis; assay type: functional, organism-based; conditions: dose 0.1-10 mg/kg
[10] = Unbound clearance in mouse liver microsomes at 0.5 uM incubated upto 45 mins; assay type: ADME, Microsome; conditions: 0.75 h
Mus musculus [11] = assay: In vivo inhibition of STT3A/STT3B in C57BL/6 mouse assessed as upregulation of DERL3 expression in lung at 0.1 to 10 mg/kg,po measured after 6 hrs by RT-qPCR analysis; assay type: functional, organism-based; conditions: dose 0.1-10 mg/kg
Mus musculus [12] = assay: In vivo inhibition of STT3A/STT3B in C57BL/6 mouse assessed as upregulation of SDF2L1 expression in blood at 0.1 to 10 mg/kg,po measured after 6 hrs by RT-qPCR analysis; assay type: functional, organism-based; conditions: dose 0.1-10 mg/kg
[13] = Inhibition of STT3A/STT3B mediated N-linked glycosylation in STT3A knockout human H1-HeLa cells stably transduced with Halo3N-ER sequence by measuring effective concentration incubated for 24 hrs by Western blotting analysis; assay type: cell-based
[14] = MRT in CD1 mouse at 2 mg/kg,po or 1 mg/kg,iv administrated upto 60 mins by LC-MS/MS analysis; assay type: ADME, organism-based; conditions: in vivo
Mus musculus [15] = assay: In vivo inhibition of STT3A/STT3B in C57BL/6 mouse assessed as upregulation of SDF2L1 expression in lung at 0.1 to 10 mg/kg,po measured after 6 hrs by RT-qPCR analysis; assay type: functional, organism-based; conditions: dose 0.1-10 mg/kg
[16] = Bioavailability in CD1 mouse at 2 mg/kg,po or 1 mg/kg,iv administrated upto 60 mins by LC-MS/MS analysis; assay type: ADME, organism-based; conditions: in vivo
[17] = Cytotoxicity against human Hepatocyte cultured as 3D spheroids incubated for 14 days by CellTiter-Glo luminescence assay; assay type: toxicity, cell-based; conditions: hepatocytes cultured as 3D spheroids
Mus musculus [18] = assay: In vivo inhibition of STT3A/STT3B in C57BL/6 mouse assessed as upregulation of […] expression in lung at 0.1 to 10 mg/kg,po measured after 6 hrs by RT-qPCR analysis; assay type: functional, organism-based; conditions: dose 0.1-10 mg/kg
[19] = Unbound clearance in CD1 mouse at 2 mg/kg,po or 1 mg/kg,iv administrated upto 60 mins by LC-MS/MS analysis; assay type: ADME, organism-based; conditions: in vivo, 1 h
[20] = Chromatographic hydrophobicity index, logD of the compound at pH 7.4; assay type: physicochemical; conditions: buffer
[21] = Cytotoxicity against human MRC5 cells by luminescence-based cell viability assay; assay type: toxicity
A549 [22] = assay: Cytotoxicity against human A549 cells; assay type: functional
SARS-CoV-2 = assay: Antiviral activity against SARS-CoV-2 infected in human A549 cells assessed as reduction in viral growth incubated for 24 hrs by Nano-Glo reagent based analysis; assay type: functional, organism-based; conditions: Severe acute respiratory syndrome coronavirus 2, A549, 24 h
[23] = Unbound clearance in rat liver microsomes at 0.5 uM incubated upto 45 mins; assay type: ADME, Microsome; conditions: 0.75 h
Human coronavirus 229E = assay: Antiviral activity against Human coronavirus 229E infected in human MRC5 cells assessed as reduction in viral growth incubated for 68 hrs by CellTiter-Glo luminescence assay; assay type: functional, organism-based; conditions: MRC5, 68 h
A549 [24] = assay: Cytotoxicity against human A549 cells by fluorescent cell imaging assay; assay type: functional
Human respirovirus 3 = assay: Antiviral activity against Human parainfluenza virus 3 JS infected in human A549 cells assessed as reduction in viral proliferation incubated for 44 hrs by Hoechst dye based fluorescence analysis; assay type: functional, organism-based; conditions: Human respirovirus 3, JS, A549, 44 h
[25] = Unbound clearance in Wistar Han rat at 2 mg/kg,po or 1 mg/kg,iv administrated upto 60 mins by LC-MS/MS analysis; assay type: ADME, organism-based; conditions: in vivo, 1 h
[26] = Bioavailability in Wistar Han rat at 2 mg/kg,po or 1 mg/kg,iv administrated upto 60 mins by LC-MS/MS analysis; assay type: ADME, organism-based; conditions: in vivo
[27] = MRT in Wistar Han rat at 2 mg/kg,po or 1 mg/kg,iv administrated upto 60 mins by LC-MS/MS analysis; assay type: ADME, organism-based; conditions: in vivo
[28] = Volume of distribution at steady state in Wistar Han rat at 2 mg/kg,po or 1 mg/kg,iv administrated upto 60 mins by LC-MS/MS analysis; assay type: ADME, organism-based; conditions: in vivo, 1 h
Influenza A virus [29] = assay: Antiviral activity against influenza A virus H1N1 A/Puerto Rico/8/1934 infected in MDCK cells assessed as reduction in viral replication measured after 3 hrs of post-infection by RT-qPCR analysis relative to control; assay type: functional; set-up: scale not given: the % may be the effect or the level left
Influenza A virus [30] = assay: Antiviral activity against influenza A virus H1N1 A/Puerto Rico/8/1934 infected in MDCK cells assessed as reduction in viral replication measured after 30 hrs of post-infection by RT-qPCR analysis relative to control; assay type: functional; set-up: scale not given: the % may be the effect or the level left
Influenza A virus [31] = assay: Antiviral activity against influenza A virus H1N1 A/Puerto Rico/8/1934 infected in MDCK cells assessed as reduction in viral proliferation incubated for 24 hrs by FFU assay; assay type: functional, organism-based; conditions: H1N1 A/Puerto Rico/8/1934, MDCK
H1-HeLa [32] = assay: Inhibition of STT3A/STT3B in human H1-HeLa cells assessed as upregulation of […] gene expression incubated for 24 hrs; assay type: cell-based
H1-HeLa [33] = assay: Inhibition of STT3A/STT3B in human H1-HeLa cells assessed as upregulation of SDF2L1 gene expression incubated for 24 hrs; assay type: cell-based
H1-HeLa [34] = assay: Inhibition of STT3A/STT3B in human H1-HeLa cells assessed as upregulation of MANF gene expression incubated for 24 hrs; assay type: cell-based
H1-HeLa [35] = assay: Inhibition of STT3A/STT3B in human H1-HeLa cells assessed as upregulation of DERL3 gene expression incubated for 24 hrs; assay type: cell-based
[36] = Neurotoxicity in human iPSC cells co-cultured with human astrocyte assessed as inhibition of cell growth at 300 nM incubated for 48 hr by multi-electrode array analysis relative to control; assay type: toxicity, cell-based; conditions: ipsc, 48 h, 0.3 µM

With C[S@@](=N)(=O)c1ccc(N2CC[C@H](O)C2)c(-c2cc3ccccc3[nH]2)c1 the inhibition (Mus musculus [1]) was “Active”, the inhibition (Mus musculus [2]) was “Active” and the inhibition (Mus musculus [3]) was “Active”. It also gave a solubility [4] of 767 µg/mL (≈ 2160 µM), a CL free [5] of under 12 mL/min/kg and a Vdss [6] of 2 L/kg. The EC50 [7] was 15 nM, the EC50 [8] was 10 nM and the inhibition (Mus musculus [9]) was “Active”. For the same compound, the CL free [10] was 30 mL/min/kg, the inhibition (Mus musculus [11]) was “Active” and the inhibition (Mus musculus [12]) was “Active”. For the same compound, the EC50 [13] was 28 nM, the MRT [14] was 180 min and the inhibition (Mus musculus [15]) was “Active”. The bioavailability [16] was 62%, the IC50 at 14 days [17] was under 1200 nM and the inhibition (Mus musculus [18]) was “Active”. The CL free [19] was 38 mL/min/kg and the chromatographic logD [20] was 2.7.

Compound C[S@](=N)(=O)c1ccc(N2CC[C@H](O)C2)c(-c2cc3ccccc3[nH]2)c1 has a CL free [5] of under 12 mL/min/kg, an EC50 [7] of 279 nM and a chromatographic logD [20] of 2.7.

For O=C([C@@H]1CCN1S(=O)(=O)c1ccc(N2CC[C@@H](O)C2)c(-c2cc3ccccc3[nH]2)c1)N1CCOCC1, the CC50 [21] was 926 nM, the CC50 (A549 [22]) was 2000 nM and the EC50 (SARS-CoV-2) was 4 nM. It also gave a CL free [5] of 904 mL/min/kg, an EC50 [7] of 5 nM and a CL free [23] of 1998 mL/min/kg. For the same compound, the EC50 (Human coronavirus 229E) was 7 nM, the CC50 (A549 [24]) was 1950 nM and the EC50 (Human respirovirus 3) was 57 nM. The chromatographic logD [20] was 3.5.

Compound CN(C)S(=O)(=O)c1ccc(N2CC[C@@H](O)C2)c(-c2cc3ccccc3[nH]2)c1 has a CL free [5] of 160 mL/min/kg, an EC50 [7] of 513 nM and a CL free [23] of 1795 mL/min/kg. The IC50 at 14 days [17] was 6300 nM and the chromatographic logD [20] was 4.8.

With Cc1cnc(NC(=O)c2cc(S(=O)(=O)N(C)C)ccc2N2CCCC2)s1 the CL free [25] was ~ 10000 ml/min.kg, the bioavailability [26] was 0.6% and the EC50 (SARS-CoV-2) was 1360 nM. The solubility [4] was under 1 µg/mL, the EC50 [7] was 589 nM and the MRT [27] was 18 min. The CL free [23] was ~ 2000 ml/min.kg, the EC50 (Human coronavirus 229E) was 1360 nM and the EC50 (Human respirovirus 3) was 379 nM. It also gave a Vdss [28] of 1.9 L/kg, an IC50 at 14 days [17] of 20000 nM and a chromatographic logD [20] of 4.9.

In the case of CN(C)S(=O)(=O)c1ccc(N2CCCC2)c(-c2cc3cccnc3[nH]2)c1, the EC50 [7] is reported as 409 nM.

CN(C)S(=O)(=O)c1ccc(N2CCCC2)c(C(=O)Nc2ncc(C3CC3)s2)c1 showed an EC50 [7] of 332 nM.

Compound CN(C)S(=O)(=O)c1ccc(N2CCC(F)(F)C2)c(-c2cc3ccccc3[nH]2)c1 has a CL free [5] of 526 mL/min/kg, an EC50 [7] of 107 nM and a CL free [23] of 27713 mL/min/kg. For the same compound, the chromatographic logD [20] was 6.6.

CN(C)S(=O)(=O)c1cnc(N2CCCC2)c(-c2cc3ccccc3[nH]2)c1 showed an EC50 [7] of 779 nM.

For CN(C)S(=O)(=O)c1ccc(N2CCCC2)c(-c2cc3ccccc3[nH]2)c1, the CL free [25] was 102538 mL/min/kg, the Activity (Influenza A virus [29]) was over 90% and the CC50 [21] was 688 nM. The CC50 (A549 [22]) was 590 nM, the Activity (Influenza A virus [30]) was 60% and the bioavailability [26] was 0%. The EC50 (SARS-CoV-2) was 34 nM, the solubility [4] was under 1 µg/mL and the CL free [5] was 303 mL/min/kg. The Vdss [6] was 6 L/kg, the EC50 [7] was 21 nM and the EC50 [8] was 36 nM. For the same compound, the MRT [27] was 42 min, the CL free [23] was 23136 mL/min/kg and the EC50 (Influenza A virus [31]) was 152 nM. For the same compound, the EC50 (Human coronavirus 229E) was 25 nM, the CC50 (A549 [24]) was 661 nM and the inhibition (H1-HeLa [32]) was “Active”. For the same compound, the EC50 [13] was 34 nM, the EC50 (Human respirovirus 3) was 9 nM and the MRT [14] was 54 min. For the same compound, the inhibition (H1-HeLa [33]) was “Active”, the Vdss [28] was 5.7 L/kg and the inhibition (H1-HeLa [34]) was “Active”. For the same compound, the bioavailability [16] was 2%, the inhibition (H1-HeLa [35]) was “Active” and the CL free [19] was 61467 mL/min/kg. It also gave a chromatographic logD [20] of 7.

CN(C)S(=O)(=O)c1ccc(N2CCCC2)c(-c2cc3ccc(F)cc3[nH]2)c1 showed an EC50 [7] of 62 nM.

For CCCC(C)C1(CC)C(=O)NC(=O)NC1=O (configuration not stated) [PENTOBARBITAL], the Activity [36] was “Non-Toxic”.
